Assay results: PubChem BioAssay (NCI)
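Results reflect a 48-hour exposure of cells in 96-well plates to compound at five concentrations. TGI denotes the concentration required for complete inhibition of growth.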

Columns and labels:
Assay in all cases: growth of human tumour cells (NCI), 48 h
[1] = tested on: SF-268 CNS
[2] = tested on: ACHN renal
[3] = tested on: OVCAR-4 ovarian
[4] = tested on: SK-MEL-28 melanoma
[5] = tested on: M14 melanoma
[6] = tested on: NCI-H226 lung
[7] = tested on: RXF 393 renal
[8] = tested on: SW-620 colon
[9] = tested on: COLO 205 colon
[10] = tested on: SK-MEL-2 melanoma
[11] = tested on: HCC-2998 colon
[12] = tested on: SN12C renal
[13] = tested on: CAKI-1 renal
[14] = tested on: PC-3 prostate
[15] = tested on: MDA-N
[16] = tested on: HS 578T breast

Row | Compound | TGI [1] [µM] | TGI [2] [µM] | TGI [3] [µM] | TGI [4] [µM] | TGI [5] [µM] | TGI [6] [µM] | TGI [7] [µM] | TGI [8] [µM] | TGI [9] [µM] | TGI [10] [µM] | TGI [11] [µM] | TGI [12] [µM] | TGI [13] [µM] | TGI [14] [µM] | TGI [15] [µM] | TGI [16] [µM]
1 | NC(CCCCN=Cc1nc(-c2ccccc2)oc1O)C(=O)O (stereo not given) | > 100 | > 100 | > 100 | > 100 | > 100 | > 100 | > 100 | > 100 | > 100 | > 100 | > 100 | > 100 | – | – | – | –
2 | Cc1ccc([N+](=O)[O-])cc1NC(=O)C(=O)Cc1cc(=O)oc2cc(O)ccc12 | > 100 | > 100 | > 100 | > 100 | > 100 | > 100 | > 100 | – | > 100 | > 100 | > 100 | > 100 | > 100 | – | – | –
3 | COc1cc2c(oc(=O)c3cc4ccoc4c(OC)c32)c2cccc(O)c12 | > 100 | > 100 | > 100 | > 100 | > 100 | > 100 | > 100 | > 100 | > 100 | > 100 | > 100 | > 100 | > 100 | – | – | –
4 | CC(C)C(Sc1nc(-c2ccccc2)c(-c2ccccc2)[nH]1)C(=O)N/N=C/c1ccc([N+](=O)[O-])cc1 (stereo not given) | 40 | > 100 | 80.5 | 30.6 | 21.6 | 40.3 | – | 37.2 | 24.9 | 29.4 | – | 25.9 | 47.9 | – | – | –
5 | C=CCOC(=O)CCCCCCCCCCCCCCCOC(=O)c1c(CCC[C@@H](C)O[Si](C)(C)C(C)(C)C)nc(=O)n2c1CC[C@H]2CC1(CC/C=C\[C@H](CC)O[Si](C(C)C)(C(C)C)C(C)C)OCCO1 | > 100 | > 100 | > 100 | > 100 | > 100 | > 100 | – | – | > 100 | > 100 | > 100 | > 100 | > 100 | > 100 | > 100 | –
6 | Cc1ccc(S(=O)(=O)N/N=C/c2oc(-c3ccccc3Cl)c(-c3ccccc3Cl)c2[N+](=O)[O-])cc1 | > 100 | 39.2 | > 100 | 62.9 | > 100 | – | 28.4 | > 100 | > 100 | 76.9 | 47.9 | 66.6 | > 100 | – | – | –
7 | c1cc2cc(c1)CN1CCNCCN(CCNCC1)Cc1cccc(c1)CN1CCNCCN(CCNCC1)C2 | > 100 | > 100 | > 100 | > 100 | > 100 | – | – | > 100 | > 100 | > 100 | > 100 | > 100 | – | > 100 | > 100 | > 100
8 | CC1(C)O[C@H]2[C@@H]3N=C(c4ccccc4)O[C@@H]3C=C[C@H]2O1 | 33.4 | > 100 | > 100 | > 100 | > 100 | > 100 | – | > 100 | > 100 | > 100 | > 100 | > 100 | > 100 | > 100 | > 100 | –
9 | O=C(Nc1ccccc1)Nn1c(-c2cccs2)nc2ccc(I)cc2c1=O | > 100 | > 100 | 90.4 | 53.6 | > 100 | > 100 | > 100 | > 100 | 53.4 | – | 55.3 | > 100 | 53.3 | > 100 | 74.6 | –
10 | CCOP(=O)(OCC)/C(C#N)=C/c1ccc[nH]1 | > 100 | > 100 | > 100 | > 100 | > 100 | > 100 | > 100 | > 100 | > 100 | > 100 | – | > 100 | > 100 | – | – | –
11 | CCCC(=O)/C=C/S/C=C/C(=O)CCC | > 100 | 6.92 | 43.2 | 18.7 | 9 | 17.9 | 21.4 | 6.05 | – | > 100 | – | 28 | 7.4 | – | – | 36.3
12 | O=C1N(CN2CCOCC2)CN(CN2CCOCC2)C(=O)N1Cc1ccccc1 | 53.1 | > 100 | > 100 | 34.8 | 33.3 | > 100 | 35.7 | 54.9 | 36.1 | 32.2 | > 100 | 48.6 | 92.8 | > 100 | 33.3 | –
13 | CN(C)CCCNC(=O)c1cc(NC(=O)c2cc(NC(=O)[C@H]3C[C@@H]3C(=O)Nc3cc(C(=O)Nc4cc(C(=O)NCCCN(C)C)n(C)c4)n(C)c3)cn2C)cn1C | > 100 | > 100 | > 100 | – | > 100 | > 100 | – | > 100 | > 100 | > 100 | > 100 | > 100 | > 100 | > 100 | – | –
14 | c1nc(SSc2ncnc3nc[nH]c23)c2[nH]cnc2n1 | > 29.2 | > 100 | > 100 | > 100 | > 68.7 | > 100 | > 100 | > 100 | > 100 | > 100 | – | > 73.3 | 1.07 | > 100 | – | > 100
15 | COc1ccc(CC2NCCc3cc(OC)c(OC)cc32)cc1 (stereo not given) | > 100 | > 100 | > 100 | > 100 | > 100 | > 100 | > 100 | > 100 | > 100 | > 100 | > 100 | > 100 | > 100 | – | – | –
16 | CC1CC(=O)C(CC(=O)O)C1C(C(=O)C(=O)Nc1c(C#N)cccc1[N+](=O)[O-])[N+](=O)[O-] (stereo not given) | > 100 | > 100 | > 100 | > 100 | > 100 | > 100 | > 100 | > 100 | > 100 | > 100 | > 100 | – | > 100 | – | – | –
17 | CCN(CC)CCC(=O)N1CCc2c([nH]c3ccccc23)C1c1cccnc1 (stereo not given) | > 100 | > 100 | > 100 | > 100 | > 100 | – | – | > 100 | – | – | > 100 | > 100 | > 100 | – | – | –

Row | Compound | TGI [1] [µM] | TGI [2] [µM] | TGI [3] [µM] | TGI [4] [µM] | TGI [5] [µM] | TGI [6] [µM] | TGI [7] [µM] | TGI [8] [µM] | TGI [9] [µM] | TGI [10] [µM] | TGI [11] [µM] | TGI [12] [µM] | TGI [13] [µM] | TGI [14] [µM] | TGI [15] [µM] | TGI [16] [µM]
18 | C[N+](C)(C)Cc1c(CC#N)[nH]c2ccccc12 | > 100 | > 100 | > 100 | > 100 | > 100 | > 100 | > 100 | > 100 | > 100 | > 100 | > 100 | > 100 | > 100 | – | – | –
19 | O=C(O)C(Cc1cnc[nH]1)N=Cc1nc(-c2ccccc2)oc1O (stereo not given) | > 100 | > 100 | > 100 | > 100 | > 100 | > 100 | > 100 | > 100 | > 100 | > 100 | > 100 | > 100 | – | – | – | –
20 | Nc1ccc(C(=O)NN2C(=O)C(Cl)C2c2ccc([N+](=O)[O-])cc2)cc1 (stereo not given) | 12.2 | 27 | 26.4 | 20.1 | 26.5 | 34.9 | – | 26.2 | 29.1 | 31.8 | 21.2 | 30 | 36.1 | – | – | –
21 | C[C@@H]1OC(=O)C[C@H]2CC(=O)N(CCC3CN(S(=O)(=O)C(F)(F)F)c4ccc(Cc5ccc6c(c5)C(CCN5C[C@H]7[C@@H](CC(=O)O[C@H]7C)CC5=O)CN6S(=O)(=O)C(F)(F)F)cc43)C[C@@H]21 (stereo not given in full) | > 100 | > 100 | > 100 | > 100 | > 100 | > 100 | > 100 | > 100 | > 100 | > 100 | > 100 | – | > 100 | > 100 | – | –
22 | O=C1SC(c2ccccc2)(c2ccccc2)c2ccccc21 | > 100 | > 100 | > 100 | > 100 | > 100 | > 100 | > 100 | > 100 | > 100 | > 100 | > 100 | > 100 | > 100 | – | – | –
23 | CC(=O)OC1(C#N)CC2OC1C1C2N1C(=O)OC(C)(C)C (stereo not given) | > 100 | > 100 | > 100 | > 100 | > 100 | > 100 | > 100 | > 100 | > 100 | > 100 | > 100 | > 100 | > 100 | – | – | –
24 | CC(=O)OCC1OC(n2c3c(cc(C#N)c2=S)CCCCCC3)C(OC(C)=O)C(OC(C)=O)C1OC(C)=O (stereo not given) | > 100 | > 100 | > 100 | > 100 | > 100 | > 100 | > 100 | – | > 100 | > 100 | > 100 | > 100 | – | > 100 | – | > 100
25 | COc1cc(C2c3[nH]c4ccc(F)cc4c3C[C@H]3COC(=O)N23)cc(OC)c1O (stereo not given in full) | 64.5 | 26.4 | 79.7 | 33.6 | 43.8 | 32.3 | 19.1 | – | 23.7 | 60.3 | 28.4 | 35.5 | 44.7 | > 100 | – | 13
26 | COC(=O)c1cc(-c2ccc(-c3ccc(O)cc3)cc2)cc(-c2ccc(-c3ccc(O)cc3)cc2)c1 | 17.8 | 27.3 | 35.9 | 25.7 | 30.5 | 32.6 | 20.9 | 21.9 | 31 | 33.7 | 33 | 27 | 29.5 | 31 | 23 | –
27 | Cc1cc(Cl)ccc1NC(=O)CC1SC(N)=NC1=O (stereo not given) | > 100 | > 100 | > 100 | > 100 | > 100 | > 100 | > 100 | > 100 | > 100 | > 100 | > 100 | > 100 | > 100 | – | – | –
28 | O=c1oc2cc(O)ccc2cc1-c1nc2ccccc2s1 | – | 52.4 | > 100 | > 100 | 82.9 | – | 79.9 | 44 | 11 | 50.6 | 66.1 | 49 | 74.6 | 52.5 | 49.9 | –
29 | CNC(=O)c1n[nH]n(Cc2ccccc2)c1=S | – | > 100 | > 100 | > 100 | > 100 | > 100 | > 100 | > 100 | > 100 | > 100 | > 100 | > 100 | > 100 | > 100 | > 100 | –
30 | NC(N)=NS(=O)(=O)c1ccc(Nc2c3ccccc3nc3c(C(=O)NC(CO)(CO)CO)cccc23)cc1 | > 100 | 40.8 | – | > 100 | 68.3 | – | – | > 100 | 51.7 | 50.8 | > 100 | > 100 | > 100 | > 100 | > 100 | 41.2
31 | COc1ccc(N=Nc2c(C)c(C#N)c(=S)n(C3OC(COC(C)=O)C(OC(C)=O)C(OC(C)=O)C3OC(C)=O)c2-c2ccccc2)cc1 (stereo not given) | – | > 100 | 12.1 | 20.3 | 10.7 | – | 23.7 | 11.1 | 22.9 | 22.8 | > 100 | 29.9 | 21.3 | 21.3 | 22.9 | –
32 | Cc1nc2c(n1CCC(C)C)C(=O)c1ccccc1C2=O | 43.1 | > 100 | > 100 | 38.8 | 38 | > 100 | 79.7 | > 100 | 30.8 | 34.6 | > 100 | 64.3 | – | – | – | –
33 | Cc1cc(NS(=O)(=O)c2ccc(NC(=O)c3cccc4cc5ccccc5nc34)cc2)no1 | > 100 | 29.8 | 39.7 | 33.1 | 43 | – | 29.1 | 70.2 | 53.4 | 41.4 | – | 43.3 | 46.7 | – | – | –
